PubChem BioAssay (NCI)
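Five compound concentrations were applied to cells in 96-well plates for 48 hours; endpoints were derived by simple linear interpolation of the resulting dose-response curve. At the TGI there is no net growth.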

Key:
Assay in all cases: NCI anticancer screen, dose series, 48 h
SNB-19 CNS = test system: SNB-19 CNS
MDA-MB-435 = test system: MDA-MB-435
HL-60(TB) leukemia = test system: HL-60(TB) leukemia
ACHN renal = test system: ACHN renal
CAKI-1 renal = test system: CAKI-1 renal
HCT-116 colon = test system: HCT-116 colon
MALME-3M melanoma = test system: MALME-3M melanoma
HCC-2998 colon = test system: HCC-2998 colon
SF-295 CNS = test system: SF-295 CNS
UO-31 renal = test system: UO-31 renal
SK-MEL-5 melanoma = test system: SK-MEL-5 melanoma
NCI-H226 lung = test system: NCI-H226 lung
MOLT-4 leukemia = test system: MOLT-4 leukemia
RXF 393 renal = test system: RXF 393 renal
HOP-92 NSCLC = test system: HOP-92 NSCLC
SF-539 CNS = test system: SF-539 CNS
OVCAR-8 ovarian = test system: OVCAR-8 ovarian
BT-549 breast = test system: BT-549 breast
SW-620 colon = test system: SW-620 colon
U251 CNS = test system: U251 CNS
DU-145 prostate = test system: DU-145 prostate
OVCAR-5 ovarian = test system: OVCAR-5 ovarian
COLO 205 colon = test system: COLO 205 colon
SK-MEL-2 melanoma = test system: SK-MEL-2 melanoma
EKVX NSCLC = test system: EKVX NSCLC
MDA-MB-231 breast = test system: MDA-MB-231 breast
NCI/ADR-RES ovarian = test system: NCI/ADR-RES ovarian
K-562 leukemia = test system: K-562 leukemia
CCRF-CEM leukemia = test system: CCRF-CEM leukemia
UACC-62 melanoma = test system: UACC-62 melanoma
HOP-62 NSCLC = test system: HOP-62 NSCLC
NCI-H23 lung = test system: NCI-H23 lung
OVCAR-4 ovarian = test system: OVCAR-4 ovarian
HT29 colon = test system: HT29 colon
A498 renal = test system: A498 renal
HCT-15 colon = test system: HCT-15 colon
IGROV1 ovarian = test system: IGROV1 ovarian
HS 578T breast = test system: HS 578T breast
OVCAR-3 ovarian = test system: OVCAR-3 ovarian
A549 NSCLC = test system: A549 NSCLC
SF-268 CNS = test system: SF-268 CNS
SK-MEL-28 melanoma = test system: SK-MEL-28 melanoma
NCI-H460 lung = test system: NCI-H460 lung
NCI-H522 lung = test system: NCI-H522 lung
T-47D breast = test system: T-47D breast
LOX IMVI melanoma = test system: LOX IMVI melanoma
SN12C renal = test system: SN12C renal
MDA-N = test system: MDA-N
RPMI-8226 leukemia = test system: RPMI-8226 leukemia
TK-10 renal = test system: TK-10 renal
PC-3 prostate = test system: PC-3 prostate
MCF7 breast = test system: MCF7 breast
786-0 renal = test system: 786-0 renal
SNB-75 CNS = test system: SNB-75 CNS
M14 melanoma = test system: M14 melanoma
UACC-257 melanoma = test system: UACC-257 melanoma
KM12 colon = test system: KM12 colon
SK-OV-3 ovarian = test system: SK-OV-3 ovarian

Compound NCCNCCCCCCNC(=O)c1cccc2cc3ccccc3nc12 has a TGI (SNB-19 CNS) of 9.58 µM, a TGI (MDA-MB-435) of 11.9 µM and a TGI (HL-60(TB) leukemia) of 3.51 µM. For the same compound, the TGI (ACHN renal) was 5.98 µM, the TGI (CAKI-1 renal) was 18.5 µM and the TGI (HCT-116 colon) was 6.33 µM. It also gave a TGI (MALME-3M melanoma) of 7.92 µM, a TGI (HCC-2998 colon) of 6.79 µM and a TGI (SF-295 CNS) of 10.6 µM. For the same compound, the TGI (UO-31 renal) was 17.2 µM, the TGI (SK-MEL-5 melanoma) was 13.4 µM and the TGI (NCI-H226 lung) was 5.02 µM. It also gave a TGI (MOLT-4 leukemia) of 4.47 µM, a TGI (RXF 393 renal) of 9.68 µM and a TGI (HOP-92 NSCLC) of 9.28 µM. For the same compound, the TGI (SF-539 CNS) was 3.88 µM, the TGI (OVCAR-8 ovarian) was 5.27 µM and the TGI (BT-549 breast) was 25.2 µM. The TGI (SW-620 colon) was 4.78 µM, the TGI (U251 CNS) was 4.15 µM and the TGI (DU-145 prostate) was 2.92 µM. The TGI (OVCAR-5 ovarian) was 14 µM, the TGI (COLO 205 colon) was 13.2 µM and the TGI (SK-MEL-2 melanoma) was 10.2 µM. For the same compound, the TGI (EKVX NSCLC) was 20.9 µM, the TGI (MDA-MB-231 breast) was 7.13 µM and the TGI (NCI/ADR-RES ovarian) was 38.4 µM. It also gave a TGI (K-562 leukemia) of 6.77 µM, a TGI (CCRF-CEM leukemia) of 7.26 µM and a TGI (UACC-62 melanoma) of 4.64 µM. It also gave a TGI (HOP-62 NSCLC) of 4.68 µM, a TGI (NCI-H23 lung) of 6.81 µM and a TGI (OVCAR-4 ovarian) of 4.7 µM. The TGI (HT29 colon) was 3.77 µM, the TGI (A498 renal) was 9.49 µM and the TGI (HCT-15 colon) was 25.5 µM. It also gave a TGI (IGROV1 ovarian) of 17.2 µM, a TGI (HS 578T breast) of 6 µM and a TGI (OVCAR-3 ovarian) of 7.16 µM. For the same compound, the TGI (A549 NSCLC) was 5.63 µM, the TGI (SF-268 CNS) was 9.93 µM and the TGI (SK-MEL-28 melanoma) was 12.3 µM. For the same compound, the TGI (NCI-H460 lung) was 2.98 µM, the TGI (NCI-H522 lung) was 4.52 µM and the TGI (T-47D breast) was 21.5 µM. For the same compound, the TGI (LOX IMVI melanoma) was 2.96 µM, the TGI (SN12C renal) was 7.8 µM and the TGI (MDA-N) was 7.13 µM. For the same compound, the TGI (RPMI-8226 leukemia) was 6.82 µM, the TGI (TK-10 renal) was 20.8 µM and the TGI (PC-3 prostate) was 8.79 µM. It also gave a TGI (MCF7 breast) of 5.39 µM, a TGI (786-0 renal) of 2.88 µM and a TGI (SNB-75 CNS) of 11.8 µM. For the same compound, the TGI (M14 melanoma) was 3.6 µM, the TGI (UACC-257 melanoma) was 15.2 µM and the TGI (KM12 colon) was 4.93 µM.
Cc1cc(=O)n2nc(CSc3nnc(N)s3)sc2n1 gave a TGI (SNB-19 CNS) of over 100 µM, a TGI (MDA-MB-435) of over 100 µM and a TGI (HL-60(TB) leukemia) of over 100 µM. For the same compound, the TGI (ACHN renal) was over 100 µM, the TGI (CAKI-1 renal) was over 100 µM and the TGI (HCT-116 colon) was over 100 µM. It also gave a TGI (MALME-3M melanoma) of over 100 µM, a TGI (HCC-2998 colon) of over 100 µM and a TGI (SF-295 CNS) of over 100 µM. The TGI (UO-31 renal) was over 100 µM, the TGI (SK-MEL-5 melanoma) was over 100 µM and the TGI (NCI-H226 lung) was over 100 µM. For the same compound, the TGI (MOLT-4 leukemia) was over 100 µM, the TGI (RXF 393 renal) was over 100 µM and the TGI (HOP-92 NSCLC) was over 100 µM. The TGI (SF-539 CNS) was over 100 µM, the TGI (OVCAR-8 ovarian) was over 100 µM and the TGI (BT-549 breast) was over 100 µM. It also gave a TGI (SW-620 colon) of over 100 µM, a TGI (U251 CNS) of over 100 µM and a TGI (DU-145 prostate) of over 100 µM. It also gave a TGI (OVCAR-5 ovarian) of over 100 µM, a TGI (COLO 205 colon) of over 100 µM and a TGI (SK-MEL-2 melanoma) of over 100 µM. It also gave a TGI (EKVX NSCLC) of over 100 µM, a TGI (MDA-MB-231 breast) of over 100 µM and a TGI (NCI/ADR-RES ovarian) of over 100 µM. For the same compound, the TGI (K-562 leukemia) was over 100 µM, the TGI (CCRF-CEM leukemia) was over 100 µM and the TGI (UACC-62 melanoma) was over 100 µM. For the same compound, the TGI (HOP-62 NSCLC) was over 100 µM, the TGI (NCI-H23 lung) was over 100 µM and the TGI (OVCAR-4 ovarian) was over 100 µM. For the same compound, the TGI (HT29 colon) was over 100 µM, the TGI (HCT-15 colon) was over 100 µM and the TGI (IGROV1 ovarian) was over 100 µM. The TGI (HS 578T breast) was over 100 µM, the TGI (OVCAR-3 ovarian) was over 100 µM and the TGI (A549 NSCLC) was over 100 µM. For the same compound, the TGI (SK-OV-3 ovarian) was over 100 µM, the TGI (SF-268 CNS) was over 100 µM and the TGI (SK-MEL-28 melanoma) was over 100 µM. It also gave a TGI (NCI-H460 lung) of over 100 µM, a TGI (NCI-H522 lung) of over 100 µM and a TGI (T-47D breast) of over 100 µM. The TGI (LOX IMVI melanoma) was over 100 µM, the TGI (SN12C renal) was over 100 µM and the TGI (MDA-N) was over 100 µM. It also gave a TGI (RPMI-8226 leukemia) of over 100 µM, a TGI (TK-10 renal) of over 100 µM and a TGI (PC-3 prostate) of over 100 µM. It also gave a TGI (MCF7 breast) of over 100 µM, a TGI (786-0 renal) of over 100 µM and a TGI (SNB-75 CNS) of over 100 µM. The TGI (M14 melanoma) was over 100 µM, the TGI (UACC-257 melanoma) was over 100 µM and the TGI (KM12 colon) was over 100 µM.
